According to patent US20120029177A1, “HETEROCYCLE-AMINO ACID DERIVATIVES FOR TARGETING CANCER TISSUE AND RADIOACTIVE OR NON-RADIOACTIVE LABELED COMPOUNDS THEREOF” (SNU R&DB FOUNDATION, priority 2009, published 2012):

Columns and labels:
[1] = system: SNU-C4 xenografted nude mice; assay: Biodistribution study in SNU-C4 xenografted nude mice after intravenous injection; format: in vivo, mouse; conditions: for % ID/g Tumor: SNU-C4 tumor
Method: Human colon cancer cell line SNU-C4 was cultured in RPMI1640 media containing 10% fetal bovine serum and harvested using trypsin. The cells were washed using 10 mL PBS and centrifugation at 3,000 rpm. Each nude mouse was injected with 2×10^5 cells/0.1 mL on the right shoulder subcutaneously. On 13 days post-injection, each 10 μCi/0.1 mL of ^68Ga labeled agent was injected into the xenografted mice through the tail vein. The injected mice were sacrificed at 10 min, 30 min, 1 hr, and 2 hr, cancer, blood, muscle, heart, liver, spleen, stomach, intestine, and bone were obtained, weighed, and their radioactivities were counted. The results were expressed as percentages of injected dose per gram tissue (% ID/g).

U87MG cells = assay: In vitro cell uptake, U87MG (FIG. 1a); format: cell-based, human; conditions: controls ^68Ga-DOTA, ^68Ga-NOTA
Method: Human colon cancer cell line SNU-C4 was purchased from Korea Cell Line Bank (KCLB). Human thyroid cell line ARO, human liver cancer cell line Hep3B, human glioma cell line U251MG and U87MG, and mouse colon cell line CT-26 were purchased from American Type Culture Collection (ATCC). SNU-C4 and ARO were culture in RPMI1640 (Welgene Inc., Korea) and Hep3B, U251 MG, U87MG, and CT-26 were cultured in DMEM (Welgene Inc., Korea). Penicillin, streptomycin and amphotericin B (10,000 IU/mL, 10 mg/mL and 25 μg/mL, respectively, Mediatech Inc., U.S.A.) 1% mixture and fetal bovine serum (Welgene Inc., Korea) were added to all cell culture media. Cell culture was done in 37° C. incubator with supply of 5% CO2.
About 1.8×10^5 cells/mL CT-26 and 1.2×10^5 cells/mL U87MG were put into 24-well incubation plate and incubated for 20 hr. When the each well was about 80% confluent with cells, 296 kBq/0.5 mL of ^68Ga labeled agent was added to each well. Culture supernatants were discarded at each time point and cells were washed with ice-cooled Hank's balanced salt solution (HBSS, pH7.3, Gibco, U.S.A.) 2 times. The cells were dissolved by 0.5% sodium dodecylsulfate (SDS), recovered and counted using a gamma counter (Packard, Can berra Co., U.S.A.). Total protein amount in each sample was measured by bicinchonic acid (BCA, Pierce, U.S.A.) method.

[2] = system: SNU-C4 xenografted nude mice; assay: PET imaging of tumor xenografted mice; format: in vivo, mouse; conditions: PET at 1 and 2 hr post-injection, FIG. 2
Method: Human colon cancer cell line SNU-C4 was cultured in RPMI1640 media containing 10% fetal bovine serum and harvested using trypsin. The cells were washed using 10 mL PBS and centrifugation at 3,000 rpm. Each nude mouse was injected with 2×10^5 cells/0.1 mL on the right shoulder subcutaneously. On 14 days post-injection, each 10 μCi/0.1 mL of ^68Ga labeled agent was injected into the xenografted mice through the tail vein. The injected mice were anesthetized using 2% isoflurane, PET images were obtained at 1 and 2 hr post-injection using rodent R4, microPET scanner (Concorde Microsystem Inc.). The images were analyzed using ASIPro software (Concorde Microsystem Inc.).

Hep3B cells = assay: In vitro cell uptake, Hep3B (FIG. 1c); format: cell-based, human; conditions: control ^68Ga-NOTA
[3] = 10 min after intravenous injection
[4] = 30 min after intravenous injection
[5] = 1 hr after intravenous injection
[6] = 2 hr after intravenous injection

Compound: NC(CNC(=O)CN1CCN(CC(=O)[O-])CCN(CC(=O)[O-])CCN(CC(=O)[O-])CC1)C(=O)O.[68Ga+3] (stereo not shown) [^68Ga-DOTA-ala]
- % ID/g Tumor [1, 3]: 3.33 ± 0.58 % ID/g
- % ID/g Tumor [1, 4]: 2.23 ± 0.64 % ID/g
- % ID/g Tumor [1, 5]: 0.93 ± 0.22 % ID/g
- % ID/g Tumor [1, 6]: 0.66 ± 0.25 % ID/g
- tumor uptake compared with the control heterocyclic compound (in words) ([1]; SNU-C4 xenografted nude mice, 10 min to 2 hr): higher than that of ^68Ga-DOTA at all time point
- % ID/g Blood [1, 3]: 7.87 ± 1.11 % ID/g
- % ID/g Blood [1, 4]: 2.63 ± 0.11 % ID/g
- % ID/g Blood [1, 5]: 1.30 ± 0.28 % ID/g
- % ID/g Blood [1, 6]: 0.65 ± 0.11 % ID/g
- % ID/g Bone [1, 3]: 2.52 ± 0.64 % ID/g
- % ID/g Bone [1, 4]: 1.20 ± 0.17 % ID/g
- % ID/g Bone [1, 5]: 0.90 ± 0.12 % ID/g
- % ID/g Bone [1, 6]: 0.70 ± 0.26 % ID/g
- % ID/g Heart [1, 3]: 2.19 ± 0.47 % ID/g
- % ID/g Heart [1, 4]: 0.78 ± 0.07 % ID/g
- % ID/g Heart [1, 5]: 0.43 ± 0.10 % ID/g
- % ID/g Heart [1, 6]: 0.15 ± 0.05 % ID/g
- % ID/g Intestine [1, 3]: 1.91 ± 0.48 % ID/g
- % ID/g Intestine [1, 4]: 0.74 ± 0.11 % ID/g
- % ID/g Intestine [1, 5]: 0.52 ± 0.10 % ID/g
- % ID/g Intestine [1, 6]: 0.40 ± 0.10 % ID/g
- % ID/g Kidney [1, 3]: 50.94 ± 18.62 % ID/g
- % ID/g Kidney [1, 4]: 44.79 ± 11.99 % ID/g
- % ID/g Kidney [1, 5]: 67.43 ± 16.10 % ID/g
- % ID/g Kidney [1, 6]: 48.79 ± 20.36 % ID/g
- % ID/g Liver [1, 3]: 1.57 ± 0.22 % ID/g
- % ID/g Liver [1, 4]: 0.80 ± 0.12 % ID/g
- % ID/g Liver [1, 5]: 0.56 ± 0.06 % ID/g
- % ID/g Liver [1, 6]: 0.39 ± 0.10 % ID/g
- % ID/g Muscle [1, 3]: 2.12 ± 0.64 % ID/g
- % ID/g Muscle [1, 4]: 0.90 ± 0.11 % ID/g
- % ID/g Muscle [1, 5]: 0.47 ± 0.16 % ID/g
- % ID/g Muscle [1, 6]: 0.14 ± 0.03 % ID/g
- % ID/g Spleen [1, 3]: 1.64 ± 0.26 % ID/g
- % ID/g Spleen [1, 4]: 0.74 ± 0.10 % ID/g
- % ID/g Spleen [1, 5]: 0.47 ± 0.04 % ID/g
- % ID/g Spleen [1, 6]: 0.33 ± 0.08 % ID/g
- % ID/g Stomach [1, 3]: 2.63 ± 0.63 % ID/g
- % ID/g Stomach [1, 4]: 0.90 ± 0.17 % ID/g
- % ID/g Stomach [1, 5]: 0.45 ± 0.10 % ID/g
- % ID/g Stomach [1, 6]: 0.21 ± 0.05 % ID/g
- tumor cell uptake versus control agents (U87MG cells): significantly increase tumor cell uptakes
- tumor uptake in PET images [2]: high tumor uptakes

Compound: NC(CCCCNC(=O)CN1CCN(CC(=O)[O-])CCN(CC(=O)[O-])CC1)C(=O)[O-].[68Ga+3] (stereo not shown) [^68Ga-NOTA-lys]
- tumor cell uptake versus control agents (Hep3B cells): significantly increase tumor cell uptakes

Compound: O=C([O-])CN1CCNCCN(CC(=O)[O-])CCNCC1.[68Ga+3] [^68Ga-DO2A, reference compound]
- % ID/g Tumor [1, 3]: 2.71 ± 0.51 % ID/g
- % ID/g Tumor [1, 4]: 2.10 ± 0.23 % ID/g
- % ID/g Tumor [1, 5]: 0.99 ± 0.10 % ID/g
- % ID/g Tumor [1, 6]: 0.67 ± 0.12 % ID/g
- % ID/g Blood [1, 3]: 7.82 ± 1.05 % ID/g
- % ID/g Blood [1, 4]: 3.61 ± 0.74 % ID/g
- % ID/g Blood [1, 5]: 1.12 ± 0.27 % ID/g
- % ID/g Blood [1, 6]: 0.44 ± 0.06 % ID/g
- % ID/g Bone [1, 3]: 2.56 ± 0.61 % ID/g
- % ID/g Bone [1, 4]: 1.54 ± 0.53 % ID/g
- % ID/g Bone [1, 5]: 0.72 ± 0.23 % ID/g
- % ID/g Bone [1, 6]: 0.58 ± 0.19 % ID/g
- % ID/g Heart [1, 3]: 2.33 ± 0.32 % ID/g
- % ID/g Heart [1, 4]: 0.97 ± 0.20 % ID/g
- % ID/g Heart [1, 5]: 0.37 ± 0.10 % ID/g
- % ID/g Heart [1, 6]: 0.23 ± 0.03 % ID/g
- % ID/g Intestine [1, 3]: 2.24 ± 0.36 % ID/g
- % ID/g Intestine [1, 4]: 1.27 ± 0.25 % ID/g
- % ID/g Intestine [1, 5]: 0.68 ± 0.11 % ID/g
- % ID/g Intestine [1, 6]: 0.62 ± 0.07 % ID/g
- % ID/g Kidney [1, 3]: 32.32 ± 21.63 % ID/g
- % ID/g Kidney [1, 4]: 13.61 ± 3.98 % ID/g
- % ID/g Kidney [1, 5]: 8.46 ± 2.11 % ID/g
- % ID/g Kidney [1, 6]: 6.90 ± 1.10 % ID/g
- % ID/g Liver [1, 3]: 2.91 ± 0.31 % ID/g
- % ID/g Liver [1, 4]: 2.75 ± 0.49 % ID/g
- % ID/g Liver [1, 5]: 2.31 ± 0.27 % ID/g
- % ID/g Liver [1, 6]: 2.17 ± 0.20 % ID/g
- % ID/g Lung [1, 3]: 6.96 ± 1.06 % ID/g
- % ID/g Lung [1, 4]: 3.57 ± 0.80 % ID/g
- % ID/g Lung [1, 5]: 1.32 ± 0.35 % ID/g
- % ID/g Lung [1, 6]: 0.87 ± 0.25 % ID/g
- % ID/g Muscle [1, 3]: 2.81 ± 0.82 % ID/g
- % ID/g Muscle [1, 4]: 1.45 ± 0.42 % ID/g
- % ID/g Muscle [1, 5]: 0.45 ± 0.17 % ID/g
- % ID/g Muscle [1, 6]: 0.13 ± 0.07 % ID/g
- % ID/g Spleen [1, 3]: 1.86 ± 0.24 % ID/g
- % ID/g Spleen [1, 4]: 1.03 ± 0.22 % ID/g
- % ID/g Spleen [1, 5]: 0.47 ± 0.10 % ID/g
- % ID/g Spleen [1, 6]: 0.38 ± 0.08 % ID/g
- % ID/g Stomach [1, 3]: 2.52 ± 0.46 % ID/g
- % ID/g Stomach [1, 4]: 1.22 ± 0.32 % ID/g
- % ID/g Stomach [1, 5]: 0.38 ± 0.05 % ID/g
- % ID/g Stomach [1, 6]: 0.18 ± 0.03 % ID/g
